Structures can show the parent of a compound that is named as a salt.

The target in one experiment is T1, TAK1-TAB1 fusion protein (Homo sapiens, UniProt O43318).
T1 construct: purchased Carna
T1 sequence (O43318 with tags, fused parts or gaps limits assumed): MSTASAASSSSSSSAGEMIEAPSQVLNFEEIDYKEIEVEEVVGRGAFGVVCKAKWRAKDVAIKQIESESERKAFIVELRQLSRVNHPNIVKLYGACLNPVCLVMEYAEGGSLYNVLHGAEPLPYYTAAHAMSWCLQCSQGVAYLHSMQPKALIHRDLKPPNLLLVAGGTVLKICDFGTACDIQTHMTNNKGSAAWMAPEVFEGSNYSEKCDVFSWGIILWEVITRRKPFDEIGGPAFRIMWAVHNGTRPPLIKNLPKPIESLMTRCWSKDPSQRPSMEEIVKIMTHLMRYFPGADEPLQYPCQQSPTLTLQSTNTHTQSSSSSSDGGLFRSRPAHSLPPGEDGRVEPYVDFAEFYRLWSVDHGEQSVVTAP
The experiment in a line: TAK1 biochemical assay (AlphaScreen, GST-MAP2K7 substrate). To be noted: TAK1-TAB1 fusion protein, GST-MAP2K7 substrate; read-out: mean TAK1 IC50 (Col. A). A general note: In Alpha technology, singlet oxygen from a donor bead excites a nearby acceptor bead.

A further experiment relates to p-p38 in HCT-116 cells. The experiment in a line: Phospho-p38 Meso Scale ELISA assay, TNFα-stimulated HCT-116 cells. Format: cell-based. To be noted: Homo sapiens, read-out: mean HCT-116 p-p38 ELISA IC50 (Col. C). On the procedure:
Detailed below are ELISA assays for pJNK and p38, and a TAK1 biochemical assay. […] In Table 1, Col.
• 1. Plate HCT-116 cells at 25,000 per well in 100 uL in 96 well clear dishes in normal growth medium. Day 2: • 1. Aspirate medium and replace with 90 μl reduced serum growth medium (1% FCS), incubate for 2 hours at 37° C. • 2. Make drugs at 10× in reduced serum medium and add 10 uL per well. • 3. Incubate at 37° C. for 4 hrs. • 4. Bring capture plates to room temperature. • 5. Block with 150 μl Blocking Solution (provided with kit) (600 mg Blocker A into 20 mL 1× Wash Buffer per plate) at room temperature with shaking. • 6. Wash plates 4× with 200 μl 1× wash buffer (10× provided with kit) before transferring lysates. • 7. Dilute TNFα to […] in reduced serum medium (this makes a 10× working stock). • 8. Add 10 μl TNFα to all wells except negative control wells, final concentration is 10 ng/mL. • 9. Incubate at 37° C. for 10 minutes. • 10. Remove medium by flicking into sink • 11. Wash cells with 100 uL ice cold PBS. • 12. Remove PBS by flicking into sink and patting on paper towels. • 13. Lyse cells in 50 μl ice cold 1× Complete Lysis Buffer plus Phosphatase and Protease inhibitors (all provided with kit) (10 mL Tris Lysis Buffer+200 μl Protease inhibitor solution+100 μl Phosphatase inhibitor I+100 μl Phosphatase inhibitor II). • 14. Incubate with shaking at 4° C. for 30 minutes. • 15. Transfer 45 μl to capture plate, cover with adhesive cover, and incubate at 4° C. over night with shaking. • Day 3: • 1. Wash plates 4× with 200 μl 1× wash buffer (10× provided with kit). • 2. […] Incubate at room temperature with shaking for 1 hour. • 4. Wash 4× with 200 μl 1× Wash Buffer. • 5. […] Read on Sector Imager. Phospho-p38 Meso Scale ELISA Assay Day 1: • 1. Plate HCT-116 cells at 25,000 per well in 100 uL in 96 well clear dishes in normal growth medium. zday 2: • 1. Aspirate medium and replace with 90 μl reduced serum growth medium (1% FCS), incubate for 2 hours at 37° C. • 2. Make drugs at 10× in reduced serum medium and add 10 uL per well. • 3. Incubate at 37° C. for 4 hrs. • 4. Bring capture plates to room temperature. • 5. Block with 150 μl Blocking Solution (provided with kit) (600 mg Blocker A into 20 mL 1× Wash Buffer per plate) at room temperature with shaking. • 6. Wash plates 4× with 200 μl 1× wash buffer (10× provided with kit) before transferring lysates. • 7. Dilute TNFα to […] in reduced serum medium (this makes a 10× working stock). • 8. Add 10 μl TNFα to all wells except negative control wells, final concentration is 10 ng/mL. • 9. Incubate at 37° C. for 10 minutes. • 10. Remove medium by flicking into sink • 11. Wash cells with 100 uL ice cold PBS. • 12. Remove PBS by flicking into sink and patting on paper towels. • 13. Lyse cells in 50 μl ice cold 1× Complete Lysis Buffer plus phosphatase and protease inhibitors (all provided with kit) (10 mL Tris Lysis Buffer+200 μl Protease inhibitor solution+100 μl Phosphatase inhibitor I+100 μl Phosphatase inhibitor II). • 14. Incubate with shaking at 4° C. for 30 minutes. • 15. Dilute lysates before transferring to capture plate with 100 μl Complete p38 Lysate • Dilution Buffer (provided with kit) (10 mL of Diluent 20±200 μl Protease inhibitor solution+100 μl Phosphatase inhibitor I+100 μl Phosphatase inhibitor II). • 16. Transfer 50 μl of diluted lysates to capture plate, cover with adhesive cover, and incubate at 4° C. over night with shaking. Day 3: • 1. Wash plates 4× with 200 μl 1× wash buffer (10× provided with kit). • 2. […] Incubate at room temperature with shaking for 1 hour. • 4. Wash 4× with 200 μl 1× Wash Buffer. • 5. […] Read on Sector Imager. TAK1 Biochemical Assay

The subject of the next experiment is pJNK in HCT-116 cells. As to the kind of experiment: Phospho-JNK (Thr183/Tyr185) Meso Scale ELISA assay, TNFα-stimulated HCT-116 cells. Format: cell-based. To be noted: Homo sapiens, read-out: mean HCT-116 pJNK ELISA IC50 (Col. B). Put shortly: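 HCT-116 cells in 1% FCS medium were pretreated with compound for 4 hrs at 37° C, then stimulated with TNFα at 10 ng/mL final for 10 minutes. Lysates were taken in ice-cold lysis buffer with phosphatase and protease inhibitors, and phospho-JNK (Thr183/Tyr185) was measured by Meso Scale ELISA.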

On to `CC(=O)N1CCC(n2cc(-c3cnc(N)c4oc(-c5ccc6[nH]ncc6c5)cc34)cn2)CC1` [Example 94, 1-(4-{4-[7-amino-2-(1H-indazol-5-yl)furo[2,3-c]pyridin-4-yl]-1H-pyrazol-1-yl}piperidin-1-yl)ethanone], for which the IC50 (in general, the point on the concentration scale where inhibition reaches its midpoint) at TAK1-TAB1 fusion protein lay in the range of 100 to 1000 nM; in the experiment with p-p38 in HCT-116 cells, 1000 to 10000 nM; in the experiment with pJNK in HCT-116 cells, 100 to 1000 nM.
`Nc1ncc(-c2cnn(C3CC4(C3)OCCO4)c2)c2cc(-c3csc4cnccc34)oc12` [Example 291, 4-[1-(5,8-dioxa-spiro[3.4]oct-2-yl)-1H-pyrazol-4-yl]-2-thieno[2,3-c]pyridin-3-yl-furo[2,3-c]pyridin-7-ylamine]: the half-inhibitory concentration (IC50) on TAK1-TAB1 fusion protein was under 100 nM; with p-p38 in HCT-116 cells it was 100 to 1000 nM; with pJNK in HCT-116 cells, 100 to 1000 nM.
As for `CC(=O)N1CCC(n2cc(-c3cnc(N)c4oc(-c5ccc(O)c(Cl)c5)cc34)cn2)CC1` [Example 136, 1-(4-{4-[7-amino-2-(3-chloro-4-hydroxyphenyl)furo[2,3-c]pyridin-4-yl]-1H-pyrazol-1-yl}piperidin-1-yl)ethanone], the IC50 is 100 to 1000 nM on TAK1-TAB1 fusion protein, 1000 to 10000 nM with p-p38 in HCT-116 cells and 100 to 1000 nM in the experiment with pJNK in HCT-116 cells.
Consider `Nc1ncc(-c2cnn([C@H]3CC[C@H](O)CC3)c2)c2cc(-c3c(F)ccc4cnsc34)oc12` [Example 240, trans-4-{4-[7-amino-2-(6-fluoro-1,2-benzothiazol-7-yl)furo[2,3-c]pyridin-4-yl]-1H-pyrazol-1-yl}cyclohexanol diformate salt], for which the IC50 on TAK1-TAB1 fusion protein is 100 to 1000 nM; with p-p38 in HCT-116 cells, 100 to 1000 nM; in the experiment with pJNK in HCT-116 cells, under 100 nM.
In the case of `CC(=O)N1CCC(n2cc(-c3cnc(N)c4oc(-c5ccc6[nH]nnc6c5)cc34)cn2)CC1` [Example 158, 1-(4-{4-[7-amino-2-(1H-benzotriazol-5-yl)furo[2,3-c]pyridin-4-yl]-1H-pyrazol-1-yl}piperidin-1-yl)ethanone], the half-maximal inhibitory concentration (IC50) on TAK1-TAB1 fusion protein is under 100 nM; in the experiment on p-p38 in HCT-116 cells it was over 10000 nM; in the experiment with pJNK in HCT-116 cells, over 10000 nM.
As to `CC(=O)N1CCC(n2cc(-c3cnc(N)c4oc(-c5cncc6cnsc56)cc34)cn2)CC1` [Example 262, 1-(4-{4-[7-amino-2-([1,2]thiazolo[4,5-c]pyridin-7-yl)furo[2,3-c]pyridin-4-yl]-1H-pyrazol-1-yl}piperidin-1-yl)ethanone Diformate Salt], the IC50 at TAK1-TAB1 fusion protein, in the experiment on p-p38 in HCT-116 cells and in the experiment on pJNK in HCT-116 cells was 100 to 1000 nM in each case.
Turning to `CC(=O)N1CCC(n2cc(-c3cnc(N)c4oc(-c5ccc6c(c5)CCO6)cc34)cn2)CC1` [Example 108, 1-(4-{4-[7-amino-2-(2,3-dihydro-1-benzofuran-5-yl)furo[2,3-c]pyridin-4-yl]-1H-pyrazol-1-yl}piperidin-1-yl)ethanone], the concentration for half-maximal inhibition (IC50) was 100 to 1000 nM at TAK1-TAB1 fusion protein, under 100 nM with p-p38 in HCT-116 cells and 100 to 1000 nM in the experiment on pJNK in HCT-116 cells.
Consider `Nc1ncc(-c2cnn(C[C@@H](O)CO)c2)c2cc(-c3csc4cnccc34)oc12` [Example 317, (R)-3-[4-(7-amino-2-thieno[2,3-c]pyridin-3-yl-furo[2,3-c]pyridin-4-yl)-pyrazol-1-yl]-propane-1,2-diol], for which the results for the half-inhibitory concentration (IC50) at TAK1-TAB1 fusion protein, in the experiment on p-p38 in HCT-116 cells and in the experiment with pJNK in HCT-116 cells were under 100 nM, 1000 to 10000 nM and 1000 to 10000 nM, respectively.
Consider `COc1nn([C@H]2CC[C@@H](O)CC2)cc1-c1cnc(N)c2oc(-c3csc4cnccc34)cc12` [Example 303, 4-[4-(7-amino-2-thieno[2,3-c]pyridin-3-yl-furo[2,3-c]pyridin-4-yl)-3-methoxy-pyrazol-1-yl]-cyclohexanol], for which the results for the concentration for half-maximal inhibition (IC50) at TAK1-TAB1 fusion protein, with p-p38 in HCT-116 cells and in the experiment with pJNK in HCT-116 cells were 100 to 1000 nM, 1000 to 10000 nM and 100 to 1000 nM, respectively.
Take `CC(C)N1CCC(n2cc(-c3cnc(N)c4oc(-c5cccc6cnccc56)cc34)cn2)CC1` [Example 79, 2-(isoquinolin-5-yl)-4-{1-[1-(propan-2-yl)piperidin-4-yl]-1H-pyrazol-4-yl]furo[2,3-c]pyridin-7-amine]: the IC50 at TAK1-TAB1 fusion protein, with p-p38 in HCT-116 cells and in the experiment on pJNK in HCT-116 cells was 100 to 1000 nM in each case.
In the case of `Nc1ncc(-c2cnn([C@H]3CC[C@H](O)CC3)c2)c2cc(-c3cncc4cnsc34)oc12` [Example 267, trans-4-{4-[7-amino-2-([1,2]thiazolo[4,5-c]pyridin-7-yl)furo[2,3-c]pyridin-4-yl]-1H-pyrazol-1-yl}cyclohexanol Diformate Salt], the half-maximal inhibitory concentration (IC50) on TAK1-TAB1 fusion protein was 100 to 1000 nM; in the experiment on p-p38 in HCT-116 cells it was 100 to 1000 nM; in the experiment with pJNK in HCT-116 cells, under 100 nM.
Consider `Nc1ncc(-c2cnn([C@H]3CC[C@H](O)CC3)c2)c2cc(-c3cc(F)cc4cnsc34)oc12` [Example 238, trans-4-{4-[7-amino-2-(5-fluoro-1,2-benzothiazol-7-yl)furo[2,3-c]pyridin-4-yl]-1H-pyrazol-1-yl}cyclohexanol diformate salt], for which the values for the half-maximal inhibitory concentration (IC50) at TAK1-TAB1 fusion protein, with p-p38 in HCT-116 cells and in the experiment on pJNK in HCT-116 cells were 100 to 1000 nM, 100 to 1000 nM and under 100 nM, respectively.
Regarding `CC(=O)N1CCC(n2cc(-c3cnc(N)c4oc(-c5ccc6c(c5)CNC6=O)cc34)cn2)CC1` [Example 98, 5-{4-[1-(1-acetylpiperidin-4-yl)-1H-pyrazol-4-yl]-7-aminofuro[2,3-c]pyridin-2-yl}-2,3-dihydro-1H-isoindol-1-one], the IC50 on TAK1-TAB1 fusion protein, with p-p38 in HCT-116 cells and in the experiment with pJNK in HCT-116 cells was over 10000 nM throughout.
On to `Nc1ncc(-c2cnn(C3CCNCC3)c2)c2cc(-c3ccc4[nH]ncc4c3)oc12` [Example 18, 2-(1H-indazol-5-yl)-4-[1-(piperidin-4-yl)-1H-pyrazol-4-yl]furo[2,3-c]pyridin-7-amine hydrochloride], for which the 50% inhibitory concentration (IC50) on TAK1-TAB1 fusion protein was under 100 nM; with p-p38 in HCT-116 cells, 100 to 1000 nM; in the experiment on pJNK in HCT-116 cells, 100 to 1000 nM.
Consider `CC(=O)N1CCC(n2cc(-c3cnc(N)c4oc(-c5cn[nH]c5)cc34)cn2)CC1` [Example 115, 1-(4-{4-[7-amino-2-(1H-pyrazol-4-yl)furo[2,3-c]pyridin-4-yl]-1H-pyrazol-1-yl}piperidin-1-yl)ethanone], for which the half-maximal inhibitory concentration (IC50) at TAK1-TAB1 fusion protein was 100 to 1000 nM; in the experiment on p-p38 in HCT-116 cells it was over 10000 nM; with pJNK in HCT-116 cells, 1000 to 10000 nM.
Consider `CC(=O)N1CCC(n2cc(-c3cnc(N)c4oc(-c5cccc6[nH]ncc56)cc34)cn2)CC1` [Example 177, 1-(4-{4-[7-amino-2-(1H-indazol-4-yl)furo[2,3-c]pyridin-4-yl]-1H-pyrazol-1-yl}piperidin-1-yl)ethanone], for which the IC50 was under 100 nM at TAK1-TAB1 fusion protein, 100 to 1000 nM in the experiment with p-p38 in HCT-116 cells and 100 to 1000 nM with pJNK in HCT-116 cells.

The values above are taken from patent publication US8378104B2 (OSI Pharmaceuticals, LLC, priority 2010, dated 2013).
